pIC50: −log10 of the molar value.

The target in experiment [1] is Cyclin-dependent kinase 5/CDK5 activator 1 (Homo sapiens, UniProt Q00535). Description: Inhibition of human recombinant CDK5/p25 after 30 mins by scintillation counting. Type of experiment: protein-complex assay.
In experiment [2] the target is Dual specificity protein kinase CLK1 (Homo sapiens, UniProt P49759).
The nature of experiment [3]: Inhibition of porcine brain CK1delta/epsilon using RRKHAAIGpSAYSITA as substrate. On the set-up: species or system Sus scrofa.
Experiment [4] concerns the target Glycogen synthase kinase-3 (Sus scrofa, UniProt B2LUN4+I6LNT8). Kind of experiment: Inhibition of porcine brain GSK3alpha/beta using GS-1 as substrate.
Experiment [5] addresses Dual specificity tyrosine-phosphorylation-regulated kinase 1A (Rattus norvegicus, UniProt Q63470). Kind of experiment: Inhibition of rat recombinant DYRK1A-GST expressed in Escherichia coli using KKISGRLSPIMTEQ as substrate.

Chain of Cyclin-dependent kinase 5/CDK5 activator 1 (Q00535 whole entry): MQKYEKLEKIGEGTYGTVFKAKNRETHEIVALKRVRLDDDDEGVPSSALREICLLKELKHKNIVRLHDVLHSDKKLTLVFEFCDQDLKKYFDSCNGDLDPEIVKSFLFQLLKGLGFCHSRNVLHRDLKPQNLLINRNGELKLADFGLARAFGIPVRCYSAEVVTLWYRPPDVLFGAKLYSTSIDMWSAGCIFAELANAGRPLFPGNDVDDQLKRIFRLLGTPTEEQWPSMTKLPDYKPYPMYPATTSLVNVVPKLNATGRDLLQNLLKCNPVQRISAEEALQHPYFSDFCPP
Chain of Cyclin-dependent kinase 5/CDK5 activator 1 (Q15078 whole entry, further chain): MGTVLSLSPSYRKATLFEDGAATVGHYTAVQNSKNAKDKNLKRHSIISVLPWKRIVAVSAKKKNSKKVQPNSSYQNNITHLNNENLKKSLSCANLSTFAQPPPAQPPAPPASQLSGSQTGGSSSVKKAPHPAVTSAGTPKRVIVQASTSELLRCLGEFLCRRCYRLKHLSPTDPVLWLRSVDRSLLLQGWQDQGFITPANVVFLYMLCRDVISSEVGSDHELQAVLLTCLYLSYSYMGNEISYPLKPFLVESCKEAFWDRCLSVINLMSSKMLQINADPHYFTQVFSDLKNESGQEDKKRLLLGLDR
Chain of Dual specificity protein kinase CLK1 (P49759 whole entry): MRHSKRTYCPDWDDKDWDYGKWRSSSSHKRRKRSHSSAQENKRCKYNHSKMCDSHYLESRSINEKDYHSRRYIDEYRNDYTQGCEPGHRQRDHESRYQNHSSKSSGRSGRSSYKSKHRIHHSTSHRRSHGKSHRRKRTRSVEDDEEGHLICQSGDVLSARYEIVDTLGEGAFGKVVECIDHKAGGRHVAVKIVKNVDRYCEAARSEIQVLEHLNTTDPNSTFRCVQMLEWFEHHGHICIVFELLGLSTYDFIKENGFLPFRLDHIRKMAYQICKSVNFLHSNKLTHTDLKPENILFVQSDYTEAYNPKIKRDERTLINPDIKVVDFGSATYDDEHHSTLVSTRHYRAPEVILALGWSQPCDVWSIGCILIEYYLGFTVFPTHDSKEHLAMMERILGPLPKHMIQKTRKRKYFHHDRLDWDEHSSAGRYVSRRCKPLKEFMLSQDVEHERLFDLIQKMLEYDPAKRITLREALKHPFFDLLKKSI

Turning to `COc1ccc2c(c1)sc1c(Nc3ccccc3)ncnc12`, the negative-log IC50 (pIC50) in experiment [1], in experiment [2], in experiment [3] and in experiment [5] was < 5.00 in each case. The 50% inhibitory concentration (IC50) in experiment [4] is > 10 µM.

For `COc1ccc2c(c1)oc1c(Nc3ccc4c(c3)OCO4)ncnc12`, the pIC50 is < 5.00 in experiment [1], 5.70 in experiment [2], < 5.00 in experiment [3] and 5.55 in experiment [5]. Besides, the IC50 in experiment [4] was > 10 µM.

`COc1ccc2c(c1)sc1c(Nc3ccc4c(c3)OCCO4)ncnc12`: the pIC50 in experiment [1] is < 5.00; in experiment [2], 6.17; in experiment [3], < 5.00; in experiment [5], 6.30. The IC50 in experiment [4] was > 10 µM.

On to `COc1ccc2c(c1)oc1c(Nc3cccc(C)c3)ncnc12`, for which the pIC50 in experiment [1], in experiment [2], in experiment [3] and in experiment [5] was < 5.00 throughout. Besides, the concentration for half-maximal inhibition (IC50) in experiment [4] is > 10 µM.

With `COc1ccc2c(c1)oc1c(Nc3ccccc3Cl)ncnc12`, the pIC50 in experiment [1] is < 5.00; in experiment [2], 5.38; in experiment [3], < 5.00; in experiment [5], 5.49. Also, the IC50 in experiment [4] was > 10 µM.

Regarding `COc1ccc2c(c1)sc1c(Nc3ccc(Cl)cc3F)ncnc12`, the negative logarithm of the IC50 (pIC50) in experiment [1], in experiment [2], in experiment [3] and in experiment [5] was < 5.00 each time. In addition, the IC50 in experiment [4] is > 10 µM.

`COc1ccc2c(c1)sc1c(Nc3ccc(Cl)c(Cl)c3)ncnc12`: the pIC50 in experiment [1] was < 5.00; in experiment [2], 5.21; in experiment [3], < 5.00; in experiment [5] it was 5.70. Also, in experiment [4], the IC50 was > 10 µM.

`COc1cc(Nc2ncnc3c2sc2cc(OC)ccc23)cc(OC)c1`: the pIC50 in experiment [1] was < 5.00; in experiment [2] it was 5.29; in experiment [3], < 5.00; in experiment [5] it was 5.41. Moreover, the IC50 in experiment [4] is > 10 µM.

On to `COc1ccc2c(c1)oc1c(Nc3ccc(C#N)cc3)ncnc12`, for which the pIC50 in experiment [1], in experiment [2], in experiment [3] and in experiment [5] was < 5.00 each time. The concentration for half-maximal inhibition (IC50) in experiment [4] was > 10 µM.

`COc1ccc2c(c1)sc1c(Nc3ccc(Cl)cc3Cl)ncnc12`: the pIC50 in experiment [1] is < 5.00; in experiment [2], < 5.00; in experiment [3], < 5.00; in experiment [5] it was 5.80. Moreover, the half-inhibitory concentration (IC50) in experiment [4] was > 10 µM.

Take `COc1ccc2c(c1)oc1c(N)ncnc12`: the pIC50 was < 5.00 in experiment [1], 6.39 in experiment [2], 5.72 in experiment [3] and 5.96 in experiment [5]. Besides, the IC50 in experiment [4] is > 10 µM.

`COc1ccc2c(c1)sc1c(Nc3ccc(Cl)cc3)ncnc12`: the pIC50 in experiment [1], in experiment [2], in experiment [3] and in experiment [5] was < 5.00 throughout. In addition, the IC50 in experiment [4] was > 10 µM.

As to `COc1ccc2c(c1)oc1c(Nc3ccc(Cl)c(Cl)c3)ncnc12`, the pIC50 in experiment [1], in experiment [2], in experiment [3] and in experiment [5] was < 5.00 in each case. Further, the IC50 in experiment [4] was > 10 µM.

In the case of `COc1ccc2c(c1)sc1c(Nc3ccc(Br)cc3)ncnc12`, the pIC50 in experiment [1], in experiment [2], in experiment [3] and in experiment [5] was < 5.00 throughout. The IC50 in experiment [4] is > 10 µM.

`COc1ccc2c(c1)oc1c(Nc3ccc(F)cc3)ncnc12`: the negative-log IC50 (pIC50) in experiment [1], in experiment [2], in experiment [3] and in experiment [5] was < 5.00 each time. In addition, the IC50 in experiment [4] was > 10 µM.

For `COc1ccc2c(c1)sc1c(Nc3ccccc3Cl)ncnc12`, the pIC50 in experiment [1] was < 5.00; in experiment [2] it was 5.51; in experiment [3], < 5.00; in experiment [5] it was 6.21. Moreover, the concentration for half-maximal inhibition (IC50) in experiment [4] is > 10 µM.

With `COc1ccc2c(c1)sc1c(Nc3ccc4c(c3)OCO4)ncnc12`, the pIC50 in experiment [1], in experiment [2], in experiment [3] and in experiment [5] was < 5.00 each time. Further, the IC50 in experiment [4] is > 10 µM.

As to `COc1ccc2c(c1)oc1c(Nc3cc(Cl)cc(Cl)c3)ncnc12`, the pIC50 in experiment [1], in experiment [2], in experiment [3] and in experiment [5] was < 5.00 throughout. In addition, the IC50 in experiment [4] is > 10 µM.

Regarding `COc1ccc2c(c1)oc1c(Nc3ccc(Br)cc3)ncnc12`, the pIC50 in experiment [1], in experiment [2], in experiment [3] and in experiment [5] was < 5.00 throughout. Also, the half-inhibitory concentration (IC50) in experiment [4] was > 10 µM.

For the molecule `COc1ccc2c(c1)oc1c(Nc3ccc(F)c(Cl)c3)ncnc12`, the pIC50 in experiment [1], in experiment [2], in experiment [3] and in experiment [5] was < 5.00 in each case. Besides, in experiment [4], the half-maximal inhibitory concentration (IC50) was > 10 µM.

As to `COc1ccc(Nc2ncnc3c2oc2cc(OC)ccc23)c(F)c1`, the negative logarithm of the IC50 (pIC50) in experiment [1], in experiment [2], in experiment [3] and in experiment [5] was < 5.00 in each case. Moreover, the concentration for half-maximal inhibition (IC50) in experiment [4] is > 10 µM.

For `COc1ccc2c(c1)sc1c(Nc3cccc(C(F)(F)F)c3)ncnc12`, the negative logarithm of the IC50 (pIC50) in experiment [1], in experiment [2], in experiment [3] and in experiment [5] was < 5.00 in each case. Moreover, the IC50 in experiment [4] is > 10 µM.

Regarding `COc1ccc2c(c1)sc1c(Nc3ccc(F)c(Cl)c3)ncnc12`, the pIC50 in experiment [1], in experiment [2], in experiment [3] and in experiment [5] was < 5.00 throughout. Besides, the half-maximal inhibitory concentration (IC50) in experiment [4] was > 10 µM.

Regarding `COc1ccc2c(c1)oc1c(Nc3ccc(F)cc3F)ncnc12`, the pIC50 in experiment [1], in experiment [2], in experiment [3] and in experiment [5] was < 5.00 throughout. Moreover, the half-inhibitory concentration (IC50) in experiment [4] is > 10 µM.

Take `COc1ccc2c(c1)oc1c(Nc3cccc(C(F)(F)F)c3)ncnc12`: the negative logarithm of the IC50 (pIC50) in experiment [1], in experiment [2], in experiment [3] and in experiment [5] was < 5.00 each time. Besides, in experiment [4], the IC50 is > 10 µM.

On to `COc1ccc2c(c1)oc1c(Nc3cccc(Cl)c3)ncnc12`, for which the pIC50 in experiment [1], in experiment [2], in experiment [3] and in experiment [5] was < 5.00 throughout. Further, the 50% inhibitory concentration (IC50) in experiment [4] was > 10 µM.

As for `COc1ccc2c(c1)sc1c(Nc3cc(OC)c(OC)c(OC)c3)ncnc12`, the negative-log IC50 (pIC50) in experiment [1], in experiment [2], in experiment [3] and in experiment [5] was < 5.00 in each case. Moreover, in experiment [4], the IC50 was > 10 µM.

In the case of `COc1ccc2c(c1)oc1c(Nc3ccc(OC)c(OC)c3)ncnc12`, the negative logarithm of the IC50 (pIC50) in experiment [1], in experiment [2], in experiment [3] and in experiment [5] was < 5.00 throughout. Also, the 50% inhibitory concentration (IC50) in experiment [4] was > 10 µM.

As to `COc1ccc2c(c1)sc1c(Nc3ccc(F)cc3F)ncnc12`, the pIC50 was < 5.00 in experiment [1], 5.80 in experiment [2], 5.41 in experiment [3] and 6.03 in experiment [5]. Besides, in experiment [4], the half-inhibitory concentration (IC50) is > 10 µM.

Consider `COc1ccc2c(c1)oc1c(Nc3ccc4c(c3)OCCO4)ncnc12`, for which the negative-log IC50 (pIC50) in experiment [1], in experiment [2], in experiment [3] and in experiment [5] was < 5.00 throughout. Moreover, the IC50 in experiment [4] is > 10 µM.

As for `COc1ccc2c(c1)oc1c(Nc3ccc(C)cc3)ncnc12`, the pIC50 in experiment [1], in experiment [3] and in experiment [5] was < 5.00 in each case. The IC50 in experiment [4] is > 10 µM.

As to `COc1cc(Nc2ncnc3c2oc2cc(OC)ccc23)cc(OC)c1`, the pIC50 in experiment [1], in experiment [3] and in experiment [5] was < 5.00 in each case. Further, in experiment [4], the half-maximal inhibitory concentration (IC50) is > 10 µM.

For `COc1ccc2c(c1)oc1c(Nc3ccc(Cl)cc3F)ncnc12`, the negative-log IC50 (pIC50) in experiment [1], in experiment [2], in experiment [3] and in experiment [5] was < 5.00 in each case. In experiment [4], the half-inhibitory concentration (IC50) is > 10 µM.

For the molecule `COc1ccc2c(c1)sc1c(Nc3ccc(N(C)C)cc3)ncnc12`, the negative-log IC50 (pIC50) is < 5.00 in experiment [1], 6.10 in experiment [2], < 5.00 in experiment [3] and 6.18 in experiment [5]. Also, the IC50 in experiment [4] was > 10 µM.

For the molecule `COc1ccc2c(c1)oc1c(Nc3ccc(Cl)cc3Cl)ncnc12`, the pIC50 was < 5.00 in experiment [1], < 5.00 in experiment [2], < 5.00 in experiment [3] and 5.51 in experiment [5]. Further, the concentration for half-maximal inhibition (IC50) in experiment [4] was > 10 µM.

In the case of `COc1ccc2c(c1)oc1c(Nc3ccc(Br)cc3F)ncnc12`, the negative-log IC50 (pIC50) in experiment [1], in experiment [2], in experiment [3] and in experiment [5] was < 5.00 each time. Moreover, the 50% inhibitory concentration (IC50) in experiment [4] was > 10 µM.

With `COc1ccc2c(c1)sc1c(Nc3cc(Cl)cc(Cl)c3)ncnc12`, the pIC50 in experiment [1] was < 5.00; in experiment [2] it was < 5.00; in experiment [3], < 5.00; in experiment [5], 5.09. Besides, in experiment [4], the IC50 is > 10 µM.

For `COc1ccc(Nc2ncnc3c2sc2cc(OC)ccc23)cc1`, the pIC50 in experiment [1] was < 5.00; in experiment [2], < 5.00; in experiment [3], < 5.00; in experiment [5] it was 5.15. Also, the IC50 in experiment [4] is > 10 µM.

Regarding `COc1ccc2c(c1)[nH]c1c(C)nccc12` [HARMINE], the pIC50 in experiment [3] was 5.82. Also, the IC50 in experiment [4] is > 10 µM.

The values are drawn from ChEMBL document CHEMBL2311417, “Synthesis and biological evaluation of N-aryl-7-methoxybenzo[b]furo[3,2-d]pyrimidin-4-amines and their N-arylbenzo[b]thieno[3,2-d]pyrimidin-4-amine analogues as dual inhibitors of CLK1 and DYRK1A kinases” (Eur J Med Chem, 2013).
